{
  "source": "paper PMC10070013",
  "about": "“Apigenin improves cytotoxicity of antiretroviral drugs against HTLV-1 infected cells through the modulation of AhR signaling” (Neuroimmune Pharmacology and Therapeutics, 2023)",
  "key": {"[1]": {"biological_target": "T1, aryl hydrocarbon receptor (AhR) (Homo sapiens, UniProt P35869)", "T1 construct": "Recombinant human AhR (LS-G13702-10)", "T1 sequence (P35869 11-848)": "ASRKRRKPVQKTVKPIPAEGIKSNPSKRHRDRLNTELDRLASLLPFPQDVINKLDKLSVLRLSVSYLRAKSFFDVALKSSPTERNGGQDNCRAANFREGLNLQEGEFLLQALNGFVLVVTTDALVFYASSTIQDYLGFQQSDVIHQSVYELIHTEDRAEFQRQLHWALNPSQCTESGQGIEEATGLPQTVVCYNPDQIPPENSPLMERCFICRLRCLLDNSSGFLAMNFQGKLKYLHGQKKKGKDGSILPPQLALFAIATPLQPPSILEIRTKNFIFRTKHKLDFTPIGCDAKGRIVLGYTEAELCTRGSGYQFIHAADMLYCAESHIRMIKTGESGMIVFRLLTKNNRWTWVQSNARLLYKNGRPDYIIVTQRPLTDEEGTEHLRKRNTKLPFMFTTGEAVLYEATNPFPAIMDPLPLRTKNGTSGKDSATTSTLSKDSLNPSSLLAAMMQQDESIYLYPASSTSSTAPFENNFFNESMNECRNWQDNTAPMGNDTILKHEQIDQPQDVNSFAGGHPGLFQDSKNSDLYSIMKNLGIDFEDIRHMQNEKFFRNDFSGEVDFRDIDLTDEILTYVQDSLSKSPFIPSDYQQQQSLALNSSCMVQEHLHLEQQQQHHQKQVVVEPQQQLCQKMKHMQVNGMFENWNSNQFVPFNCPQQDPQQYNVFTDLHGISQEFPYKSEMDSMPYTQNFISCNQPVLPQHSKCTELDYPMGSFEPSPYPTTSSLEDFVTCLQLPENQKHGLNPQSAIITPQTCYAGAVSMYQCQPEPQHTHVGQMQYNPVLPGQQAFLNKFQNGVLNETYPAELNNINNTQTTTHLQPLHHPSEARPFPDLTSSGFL", "test": "Nano-ITC with recombinant protein", "format": "binding"}, "[2]": {"biological_target": "T2, ATP binding cassette subfamily B member 1 (ABCB1/P-gp) (Homo sapiens, UniProt P08183)", "T2 construct": "Recombinant human ABCB1 (LS-G142372-20)", "T2 sequence (P08183 whole entry)": "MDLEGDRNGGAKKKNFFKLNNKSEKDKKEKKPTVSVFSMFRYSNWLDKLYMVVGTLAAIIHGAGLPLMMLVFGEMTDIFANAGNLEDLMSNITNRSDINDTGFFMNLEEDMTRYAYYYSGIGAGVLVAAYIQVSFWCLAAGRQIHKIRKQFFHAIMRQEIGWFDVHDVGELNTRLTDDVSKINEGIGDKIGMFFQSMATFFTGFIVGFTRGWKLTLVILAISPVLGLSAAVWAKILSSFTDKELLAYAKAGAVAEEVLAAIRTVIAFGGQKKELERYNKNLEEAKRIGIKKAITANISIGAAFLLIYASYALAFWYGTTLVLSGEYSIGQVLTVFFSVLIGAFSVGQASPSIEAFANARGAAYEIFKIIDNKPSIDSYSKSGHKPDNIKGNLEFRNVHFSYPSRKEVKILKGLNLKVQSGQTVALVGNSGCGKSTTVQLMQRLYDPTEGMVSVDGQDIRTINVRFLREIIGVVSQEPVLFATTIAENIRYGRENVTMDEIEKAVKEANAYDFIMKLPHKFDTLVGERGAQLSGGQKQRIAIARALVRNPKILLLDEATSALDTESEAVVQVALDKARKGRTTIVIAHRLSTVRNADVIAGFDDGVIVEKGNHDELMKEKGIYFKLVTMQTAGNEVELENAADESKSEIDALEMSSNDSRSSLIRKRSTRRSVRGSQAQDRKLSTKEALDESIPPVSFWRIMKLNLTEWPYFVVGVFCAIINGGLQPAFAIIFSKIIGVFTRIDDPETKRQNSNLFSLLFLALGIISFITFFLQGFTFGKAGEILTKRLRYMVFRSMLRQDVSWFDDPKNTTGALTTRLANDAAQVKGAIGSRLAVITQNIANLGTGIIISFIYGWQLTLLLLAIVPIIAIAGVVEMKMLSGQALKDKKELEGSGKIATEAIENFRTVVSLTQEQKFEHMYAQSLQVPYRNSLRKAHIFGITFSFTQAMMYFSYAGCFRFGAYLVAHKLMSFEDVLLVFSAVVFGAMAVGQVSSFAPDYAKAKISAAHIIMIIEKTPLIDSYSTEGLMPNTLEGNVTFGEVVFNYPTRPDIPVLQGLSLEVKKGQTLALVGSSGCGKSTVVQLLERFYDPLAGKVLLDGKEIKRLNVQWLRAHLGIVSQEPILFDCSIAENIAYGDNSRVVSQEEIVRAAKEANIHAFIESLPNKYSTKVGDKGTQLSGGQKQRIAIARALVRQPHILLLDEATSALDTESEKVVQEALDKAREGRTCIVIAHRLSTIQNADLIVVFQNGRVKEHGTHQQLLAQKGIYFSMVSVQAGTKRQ", "test": "Nano-ITC with recombinant protein (positive control protein)"}},
  "data": [
    {"smiles": "O=c1cc(-c2ccc(O)cc2)oc2cc(O)cc(O)c12", "note": "[Apigenin]", "values": [
      {"measurement": "Kd", "setting": "[1]", "value": 4.24, "unit": "µM"},
      {"measurement": "Kd", "setting": "[2]", "value": 0.001, "unit": "µM"}
    ]}
  ]
}
